# Test results as given in US12162935B2, “Regimens, compositions and methods with capsaicin and TNF-alpha inhibitor” (priority 2018, dated 2024).
# How the values were obtained:
# TRPV1 = TRPV1 (Homo sapiens, UniProt Q8NER1); assay: Ca2+ imaging (Fluo-4AM) in HEKVR1 cells; assay type: cell-based; conditions: capsaicin 2.5 μM
# From the text: NE has been linked to immediate increase in ROS generation and persistent oxidative stress in the cochlea2, leading to generation of reactive oxygen species such as: hydroxyl […] (OH^−), superoxide anion (O^2—) and hydrogen peroxide (H2O2).
# rat cochlea = assay: Cochlear gene expression by q-PCR (cisplatin study); assay type: in vivo
# outer hair cells (OHCs) = assay: Outer hair cell damage by SEM and whole mount hair cell count; assay type: in vivo, rat
# From the text: Immediately after completion of post-treatment ABRs, rats were euthanized and their cochleae were harvested and the specimens processed as described previously by [Kamimura et al.]. Sputter-coated cochlea were viewed and photographed with a Hitachi S-500 scanning electron microscope (Hitachi Ltd.). The resulting scanning electron micrographs were examined to determine qualitative morphological characteristics in various regions including the basal, middle, and apical turns of the rat cochlea.
# Two representative areas of the basal turn, middle turn, and apex and hook portion were photographed. In each area, outer hair cells (OHCs) were counted in an area that was 10 pillar cell heads in length. The results are presented as the percentage hair cell damage per cochlear turn. At least three cochleae from different animals per treatment group were used.
# To study the organization of the outer hair cells and inner hair cells, the cochlear whole mount technique was used. The cochleae was fixed in fresh 4% paraformaldehyde overnight, and then decalcified in […] EDTA for 2 weeks, (pH 7.3) while stirring at room temperature for 2 weeks. After decalcification, the cochleae was microdissected into basal, middle, and apical turns for whole-mount preparation.
# For further processing, segments were washed with 1×PBS twice for 5 mins. For blocking, the segments were incubated in 10% blocking serum (horse serum) for 3 hrs at room temperature. The segments were incubated with primary antibody in 0.2% Triton prepared in PBS and refrigerated overnight. The following day, the segments were washed in PBS (three washes) for 5 mins each wash. The segments were washed in secondary antibody for 2 hrs at room temperature in the dark. The antibodies were then washed with PBS (three washes). Glass coverslips were then mounted on the segments with ProLong Diamond Antifade Mountant (Thermo Fisher Scientific) and incubated them at room temperature overnight and then stored them in 4 degrees. Images were procured using a Leica confocal microscope (Buffalo Grove, IL).
# For hair cell count in whole mount preparations, two to three random areas from the basal turn from each treatment group separately were selected. Hair cells were counted in […] segments of the cochlea respectively. Counts were averaged across treatment group. This was further normalized as % of PBS (control) by taking the values of control as 100%.
# UB/OC-1 cells = assay: Cell viability assay (MTS assay); assay type: cell-based; conditions: capsaicin 2.5 μM prior to cisplatin 20 μM
# Method: The in vitro UB/OC1 cell proliferation was performed by using the CellTiter 96® AQueous One Solution Cell Proliferation Assay Kit (Promega, Madison, WI), according to the manufacturer's instructions. 3,500 cells were seeded per well into a 96-well plate. […] After 48 h, 20 μl of CellTiter 96 AQueous One Solution reagent was added to each well in 100 μl of total volume of media. Cells were incubated for 1 h, and recorded absorbance at 490 nm using an ELISA plate reader. The absorbance is directly proportional to the number of living cells and is expressed as a percent relative to vehicle-treated cells.
# Wistar rats [1] = assay: Restoration of hearing after permanent threshold shifts (Example 10B); assay type: in vivo, rat; conditions: treatment after PTS at 4 weeks; oral capsaicin 5 mg/kg 3 days, ETA 1 mg/kg s.c. day 2, three weeks
# Method: FIG. 23A is a schematic showing the experimental paradigm used in Example 10B. Pre-treatment baseline ABRs were performed in naïve male Wistar rats. The rats were then used either as sham controls (no noise exposure) or exposed-noise (122 dB, OBN centered at 16 kHz for 1 hour). Post noise exposure ABRs were repeated at 4 weeks to establish permanent threshold shifts (PTS). […] Final ABR threshold values were evaluated at week 9 post noise exposure.
# Values shown in FIGS. 23A-23C and otherwise provided with respect to this Example 10B are expressed as the mean±SEM. Statistical significance was analyzed using the ANOVA and Tukey's host hoc analysis.
# UB/OC1 cells = assay: Bax/Bcl-2 ratio in UB/OC1 cells; assay type: cell-based, mouse
# UMSCC-10b cells = assay: SCID mouse xenograft model; assay type: in vivo
# Method: SCID mice (from Envigo, 5-6 weeks of age) were injected subcutaneously with 1.5×10^6 mycoplasma-free UMSCC 10B cells in one flank. […] At the time of each treatment, tumor volumes were calculated based on the formula: volume=width2×(length/2) [Jajoo et al.]. Mice were killed 24 h after the eleventh treatment. All procedures were performed in accordance with relevant guidelines and regulations of SIU School of Medicine.
# Wistar rats [2] = assay: ABR threshold shifts, cisplatin-induced hearing loss; assay type: in vivo, rat
# Method: Adult male Wistar rats (200-350 g) (from Envigo) were used for this study. Rats were housed in a temperature controlled room with a twelve hour light/dark cycle. They had free access to commercial food and water provided by the SIU Laboratory Animal Care facility.
# Prior to experiments, rats were anesthetized with ketamine HCl/xylazine mixture (24.6/3 mg/kg) and then placed in a sound-attenuation chamber (Industrial Acoustic Company, Inc.). Body temperature of the rats was maintained at 37° C. with an animal blanket system. Pretreatment auditory brainstem responses (ABRs) was performed using an IHS-High-frequency System (Intelligent Hearing Systems, Miami, FL). The rats were exposed to acoustic stimuli via HIS transducers that were directly placed at the entrance of the ear canal. ABR thresholds were obtained for 5 ms duration tone bursts at 8, 16 and 32 kHz at a rate of 50/s. Thresholds were determined by visually produced lowest intensity evoked potentials (EP) that progressed in 10 dB steps. Evoked potentials (Eps) were amplified to 200,000×, and were band pass filtered (100-3000 Hz) and averaged over 1024 sweeps [Mukherjea et al., 2010].
# At the end of auditory testing, the anesthetized animals were decapitated and the cochlea harvested. The SIU Laboratory Animal Care and Use Committee approved all animal procedures.
# Male Wistar rats were anesthetized using ketamine/xylazine cocktail. The tympanic membrane was punctured as described in [Mukherjea et al., 2010].
# Wistar rats [3] = conditions: capsaicin TT 50 μl of 0.1 μM; Mukherjea et al., 2011; cited from earlier work
# Sequence of TRPV1 (Q8NER1 whole entry, species assumed): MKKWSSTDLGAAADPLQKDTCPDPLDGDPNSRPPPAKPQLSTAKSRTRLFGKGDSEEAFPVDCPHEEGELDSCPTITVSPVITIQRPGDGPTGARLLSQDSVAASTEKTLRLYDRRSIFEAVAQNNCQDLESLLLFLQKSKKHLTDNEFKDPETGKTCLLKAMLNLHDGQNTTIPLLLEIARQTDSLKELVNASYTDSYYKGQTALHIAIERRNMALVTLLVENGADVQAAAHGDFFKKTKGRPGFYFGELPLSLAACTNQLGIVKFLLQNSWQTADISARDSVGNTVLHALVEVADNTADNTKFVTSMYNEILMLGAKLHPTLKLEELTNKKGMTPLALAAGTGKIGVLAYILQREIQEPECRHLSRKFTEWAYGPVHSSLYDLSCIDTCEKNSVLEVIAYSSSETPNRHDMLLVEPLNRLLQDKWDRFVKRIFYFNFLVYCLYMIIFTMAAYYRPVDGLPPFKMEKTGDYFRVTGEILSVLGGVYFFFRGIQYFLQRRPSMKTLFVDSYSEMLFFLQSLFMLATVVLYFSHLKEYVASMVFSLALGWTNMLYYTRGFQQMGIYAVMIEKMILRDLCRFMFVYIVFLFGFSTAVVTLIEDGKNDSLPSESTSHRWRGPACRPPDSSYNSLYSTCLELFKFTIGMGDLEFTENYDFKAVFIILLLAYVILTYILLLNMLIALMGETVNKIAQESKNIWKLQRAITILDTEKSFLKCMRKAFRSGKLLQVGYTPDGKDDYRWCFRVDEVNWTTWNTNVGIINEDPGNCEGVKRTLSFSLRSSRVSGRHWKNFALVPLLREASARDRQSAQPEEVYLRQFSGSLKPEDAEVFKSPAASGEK
smiles,measurement,setting,value
"COc1cc(CNC(=O)CCCC/C=C/C(C)C)ccc1O [capsaicin, 8-methyl-N-vanillyl-trans-6-nonenamide]",increase in Ca^2+ over basal fluorescence,TRPV1,741±22%
same,"expression of TRPV1, NOX3 and iNOS",rat cochlea; TT-capsaicin 24 h prior to cisplatin,significant reduction
same,"expression of TRPV1, NOX3 and iNOS",rat cochlea; capsaicin alone,did not significantly change
same,CB2 receptor expression in the rat cochlea,rat cochlea; oral capsaicin,increased the expression of CB2 receptor
same,"Bax/Bcl-2 ratio, rat cochlea",rat cochlea; oral capsaicin prior to cisplatin,significant decrease
same,"Bax/Bcl-2 ratio, rat cochlea",rat cochlea; single agent (cisplatin or oral capsaicin alone),less than half of that observed following cisplatin alone
same,stereociliary damage induced by cisplatin,"outer hair cells (OHCs); SEM, oral capsaicin",significantly reduced
same,loss of outer hair cells,"outer hair cells (OHCs); SEM, trans-tympanic capsaicin pretreatment, cisplatin",no significant loss of outer hair cells
same,hair cell damage,"outer hair cells (OHCs); whole mount, oral capsaicin alone",minimal hair cell damage
same,outer hair cell loss compared to control,"outer hair cells (OHCs); whole mount, oral capsaicin prior to cisplatin",no significant outer hair cell loss
same,cisplatin-induced cell killing,UB/OC-1 cells,blocked cisplatin-induced cell killing
same,average hearing threshold shifts at 9 weeks,Wistar rats [1],15-25 dB
same,Bax/Bcl-2 ratios,UB/OC1 cells,1.1±0.2
same,cisplatin tumor growth curves,UMSCC-10b cells; oral capsaicin 0.5 mg/kg + cisplatin 2 mg/kg ip,shifted the cisplatin tumor growth curves to the right
same,"tumor growth (volume, size, weight)",UMSCC-10b cells; single agent: cisplatin 2 mg/kg ip or oral capsaicin 0.5 mg/kg,"decreased tumor size and weight, but not significantly"
same,ABR threshold shifts produced by cisplatin,"Wistar rats [2]; TT-capsaicin 50 μl of 0.1 μM 24 h prior to cisplatin 11 mg/kg ip, 72 h, 8, 16 and 32 kHz",significantly reduced ABR threshold shifts
same,ABR thresholds,"Wistar rats [2]; TT-capsaicin alone, 72 h, vs TT vehicle",did not significantly alter ABR thresholds
same,ABR threshold,"Wistar rats [2]; capsaicin alone by trans-tympanic injection or oral gavage, 72 h",did not significantly alter ABR threshold
same,protection against cisplatin-induced ABR threshold shifts,Wistar rats [2]; oral capsaicin 5 mg/kg 24 h prior to cisplatin,did not protect
same,cisplatin ABR threshold shift,Wistar rats [2]; oral capsaicin 20 mg/kg 24 h prior to cisplatin (FIG. 11.B),abrogated
same,protection against cisplatin-induced ABR threshold shifts,Wistar rats [2]; oral capsaicin 10 or 20 mg/kg 24 h prior to cisplatin,Significant protection
same,duration of transient ABR threshold shift,Wistar rats [3],24 h
